Source: US20050147698A1, “Co-beadlet of dha and rosemary and methods of use” (Alcon, Inc., priority 2003, published 2005)

Test system: retinas
Assay: protection of retinas from acute light-induced toxicity
Format: in vivo
Details: no data or method given

Vitamin E
protection of retinas from acute light-induced toxicity: effective in protecting retinas from acute light-induced toxicity
